Target: T1, microsomal triglyceride transfer protein (MTP) (Mesocricetus auratus, UniProt P55158)
T1 construct: The supernatant comprising the soluble MTP is dialysed against Tris/HCl 150 mM; from tissue; host or cells: golden hamster liver microsomes, deoxycholate-solubilised supernatant, dialysed
T1 sequence (P55158 19-895): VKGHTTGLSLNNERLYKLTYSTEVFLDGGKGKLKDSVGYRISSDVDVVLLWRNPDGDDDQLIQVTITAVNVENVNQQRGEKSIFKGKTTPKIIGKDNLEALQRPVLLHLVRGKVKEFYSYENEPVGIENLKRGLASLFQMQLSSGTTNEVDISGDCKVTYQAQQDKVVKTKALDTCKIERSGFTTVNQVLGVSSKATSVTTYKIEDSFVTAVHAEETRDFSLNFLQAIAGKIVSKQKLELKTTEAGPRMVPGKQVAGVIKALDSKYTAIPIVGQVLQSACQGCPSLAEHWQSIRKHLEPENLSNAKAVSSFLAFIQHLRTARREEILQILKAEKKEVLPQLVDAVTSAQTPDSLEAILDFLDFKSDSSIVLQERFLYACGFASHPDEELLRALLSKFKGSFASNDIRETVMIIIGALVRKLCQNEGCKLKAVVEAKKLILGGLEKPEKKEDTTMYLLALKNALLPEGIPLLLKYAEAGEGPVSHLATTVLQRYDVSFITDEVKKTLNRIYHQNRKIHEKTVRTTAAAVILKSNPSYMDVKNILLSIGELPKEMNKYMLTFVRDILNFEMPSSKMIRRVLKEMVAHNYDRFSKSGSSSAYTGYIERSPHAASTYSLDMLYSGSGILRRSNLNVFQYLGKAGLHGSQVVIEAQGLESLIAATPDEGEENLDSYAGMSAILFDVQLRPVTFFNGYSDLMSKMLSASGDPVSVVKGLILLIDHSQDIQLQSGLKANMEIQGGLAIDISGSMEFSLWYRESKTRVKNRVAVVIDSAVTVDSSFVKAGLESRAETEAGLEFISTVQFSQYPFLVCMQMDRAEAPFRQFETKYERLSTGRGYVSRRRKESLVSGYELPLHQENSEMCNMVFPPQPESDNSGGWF
Assay: Inhibition of MTP activity: transfer of [3H]-triolein from donor liposomes to biotinylated LDL, SPA
Assay type: biochemical
Details: MTP from golden hamster liver; incubation 18-24 hours at 37° C.; read-out: IC50, concentration that allows a 50% inhibition of MTP
Experimental: Analysis of the Inhibition of MTP Activity
The inhibition of the activity of microsomal triglyceride transfer protein (MTP) was tested by using the following operating protocol.
The inhibition of MTP activity with a compound can be quantified by observing the inhibition of the transfer of a labelled triglyceride, from a donor particle to an acceptor particle, in the presence of MTP. The procedure for the preparation of MTP is based on the method by Wetterau and Zilversmit (Biochem. Biophys. Acta (1986) 875, 610). A few grams of golden hamster liver are taken and then rinsed several times in a 250 mM sucrose solution at 0° C. All the following steps proceed at +4° C. A homogenate at a concentration of 50% in 250 mM sucrose is prepared using a Teflon mill and then centrifuged for 10 minutes at 10 000×g at +4° C. The supernatant is then centrifuged at 105 000×g for 75 minutes at +4° C. The supernatant is discarded and the microsomal pellet is taken up in 3 ml (per g of starting liver) of Tris/HCl 150 mM pH 8.0. 1-ml aliquot fractions are stored at −80° C. until the time of use.
After thawing a fraction of microsomes (1 ml), 12 ml of refrigerated Tris/HCl 50 mM, KCl 50 mM, MgCl2 5 mM pH 7.4 buffers and 1.2 ml of deoxycholate (0.54% in water) are added. After incubation for 30 minutes at +4° C. with gentle agitation, the suspension is centrifuged at 105 000×g for 75 minutes. The supernatant comprising the soluble MTP is dialysed against Tris/HCl 150 mM, NaCl 40 mM, EDTA 1 mM, 0.02% sodium azide pH 7.4 buffer (5 times one litre over 2-3 days). The MTP is stored at +4° C., is stable for at least 30 days and is used in unmodified form in the test.
The donor particles (liposomes) are prepared from 208 μl of L-phosphatidylcholine at a concentration of 10 mg/ml in chloroform, and 480 μl of [3H]-triolein at a concentration of 0.5 mCi/ml in toluene. After stirring, the solution is evaporated under nitrogen, taken up in 6 ml of Tris/HCl 50 mM, KCl 50 mM, MgCl2 5 mM pH 7.4 buffer and incubated in an ultrasound bath for 30 minutes at room temperature. The liposomes are stored at +4° C. and sonicated again for 10 minutes before each use.
The acceptor particles are biotinylated low density lipoproteins (LDL-biot). These particles are supplied by the company Amersham.
The reaction mixture is prepared in untreated ½ well white plates (Corning Costar) by addition, in the following order, of: 5 μl of HEPES 50 mM, NaCl 150 mM, BSA 0.1% (w/v), 0.05% sodium azide (w/v), pH 7.4 buffer; 5 μl of liposome; 5 μl of LDL-biot; 5 μl of test products in DMSO; 5 μl of MTP. After incubation for 18-24 hours at 37° C., the reaction is stopped by adding 100 μl of Amersham SPA (Scintillation Proximity Assay) beads coupled to streptavidin, and the radioactivity is counted using a Top Count (Packard) machine at least one hour later. The inhibition of the transfer of the triglycerides with a compound is reflected by a reduction in the transferred radioactivity.
The results are expressed in terms of the IC50, i.e. the concentration that allows a 50% inhibition of MTP.

| Structure (SMILES) | IC50 |
| --- | --- |
| COC(=O)[C@@H](NC(=O)N1CCC(Oc2cccc(NC(=O)c3cccc(C)c3-c3ccc(OC(F)(F)F)cc3)c2)CC1)C(C)C [Example 49, methyl N-[[4-[3-[[[6-methyl-4′-(trifluoro-methoxy)[1,1′-biphenyl]-2-yl]carbonyl]-amino]phenoxy]-1-piperidinyl]carbonyl]-L-valinate] | 551 nM |
| CCOC(=O)CCCCCNC(=O)N1CCC(Oc2cccc(NC(=O)c3cccc(C)c3-c3ccc(OC(F)(F)F)cc3)c2)CC1 [Example 45, ethyl 6-[[[4-[3-[[[6-methyl-4′-(trifluorometh-oxy)[1,1′-biphenyl]-2-yl]carbonyl]amino]-phenoxy]-1-piperidinyl]carbonyl]amino]-hexanoate] | 779 nM |
| COc1cc(NC(=O)N2CCC(Oc3cccc(NC(=O)c4cccc(C)c4-c4ccc(OC(F)(F)F)cc4)c3)CC2)cc(OC)c1OC [Example 38, 4-[3-[[[6-methyl-4′-(trifluoromethoxy)[1,1′-biphenyl]-2-yl]carbonyl]amino]phenoxy]-N-(3,4,5-trimethoxyphenyl)-1-piperidine-carboxamide] | 422 nM |
| Cc1cccc(C(=O)Nc2cccc(OC3CCN(C(=O)OC(C)(C)C)CC3)c2)c1-c1ccc(OC(F)(F)F)cc1 [Example 1, 1,1-dimethylethyl 4-[3-[[[6-methyl-4′-(trifluoromethoxy)[1,1′-biphenyl]-2-yl]carbonyl]amino]phenoxy]-1-piperidine-carboxylate] | 421 nM |
| Cc1cccc(C(=O)Nc2cccc(OC3CCN(C(=O)c4cccs4)CC3)c2)c1-c1ccc(OC(F)(F)F)cc1 [Example 99, 6-methyl-N-[3-[[1-(2-thienylcarbonyl)-4-piperidinyl]oxy]phenyl]-4′-(trifluorometh-oxy)[1,1′-biphenyl]-2-carboxamide] | 416 nM |

Now those with a lower IC50, led by results:

| IC50 | Structure (SMILES) |
| --- | --- |
| 392 nM | Cc1cccc(C(=O)Nc2cccc(OC3CCN(S(=O)(=O)c4cccc5nonc45)CC3)c2)c1-c1ccc(OC(F)(F)F)cc1 [Example 20, N-[3-[[1-(2,1,3-benzoxadiazol-4-yl-sulfonyl)-4-piperidinyl]oxy]phenyl]-6-methyl-4′-(trifluoromethoxy)[1,1′-biphenyl]-2-carboxamide] |
| 382 nM | Cc1cccc(C(=O)Nc2cccc(OC3CCN(Cc4ccc(N(C)C)cc4)CC3)c2)c1-c1ccc(OC(F)(F)F)cc1 [Example 84, N-[3-[[1-[[4-(dimethylamino)phenyl]-methyl]-4-piperidinyl]oxy]phenyl]-6-methyl-4′-(trifluoromethoxy)[1,1′-biphenyl]-2-carboxamide] |
| 295 nM | CCOC(=O)c1ccc(NC(=O)N2CCC(Oc3cccc(NC(=O)c4cccc(C)c4-c4ccc(OC(F)(F)F)cc4)c3)CC2)cc1 [Example 27, ethyl 4-[[[4-[3-[[[6-methyl-4′-(trifluorometh-oxy)[1,1′-biphenyl]-2-yl]carbonyl]amino]-phenoxy]-1-piperidinyl]carbonyl]amino]-benzoate] |
| 136 nM | Cc1cccc(C(=O)Nc2cccc(OC3CCN(C(=O)CC(C)C)CC3)c2)c1-c1ccc(OC(F)(F)F)cc1 [Example 129, 6-methyl-N-[3-[[1-(3-methyl-1-oxobutyl)-4-piperidinyl]oxy]phenyl]-4′-(trifluorometh-oxy)[1,1′-biphenyl]-2-carboxamide] |
| 114 nM | CCCCNC(=O)N1CCC(Oc2cccc(NC(=O)c3cccc(C)c3-c3ccc(OC(F)(F)F)cc3)c2)CC1 [Example 33, N-butyl-4-[3-[[[6-methyl-4′-(trifluorometh-oxy)[1,1′-biphenyl]-2-yl]carbonyl]amino]-phenoxy]-1-piperidinecarboxamide] |
| 82.7 nM | CCOC(=O)CNC(=O)N1CCC(Oc2cccc(NC(=O)c3cccc(C)c3-c3ccc(OC(F)(F)F)cc3)c2)CC1 [Example 31, ethyl N-[[4-[3-[[[6-methyl-4′-(trifluorometh-oxy)[1,1′-biphenyl]-2-yl]carbonyl]amino]-phenoxy]-1-piperidinyl]carbonyl]glycinate] |
